The values that follow come from patent US11851426B2, “Bicyclic amines as CDK2 inhibitors” (Incyte Corporation, priority 2019, dated 2023).

The assay addresses CDK2/Cyclin E1 (Homo sapiens (Human), UniProt P24941). The assay can be described thus: CDK2/Cyclin E1 HTRF enzyme activity assay. The format is biochemical. Particulars: 1 mM ATP; CDK2/Cyclin E1 0.25 nM; 60 minutes at room temperature. The essentials: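 HTRF read-out of 4E-BP1 (Thr37/46) peptide phosphorylation (ULight peptide 50 nM) by 0.25 nM baculovirus-made GST-CDK2/FLAG-Cyclin E1, with ATP at 50 μM or 1 mM, 60 min at room temperature, pH 7.5. Eu-anti-phospho antibody with EDTA quench; IC50 fitted by three- or four-parameter dose-response.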
For orientation: In TR-FRET formats the signal depends on donor and acceptor labels being close together.
For the compound `CC(C)Oc1c(-c2cn[nH]c2)ncc2nc(N[C@H]3CCN(S(C)(=O)=O)C[C@H]3C)nn12` [Example 87, 5-Isopropoxy-N-((3R,4S)-3-methyl-1-(methylsulfonyl)piperidin-4-yl)-6-(1H-pyrazol-4-yl)-[1,2,4]triazolo[1,5-a]pyrazin-2-amine], the IC50 is at most 20 nM.

Turning to `CCS(=O)(=O)N1CC[C@H](Nc2nc3cnc(-c4cn[nH]c4)c(OC(C)C)n3n2)[C@H](C)C1` [Example 88, N-((3R,4S)-1-(Ethylsulfonyl)-3-methylpiperidin-4-yl)-5-isopropoxy-6-(1H-pyrazol-4-yl)-[1,2,4]triazolo[1,5-a]pyrazin-2-amine], the IC50 is at most 20 nM.

In the case of `CC(C)Oc1c(-c2cn[nH]c2)ncc2nc(N[C@H]3CCN(S(=O)(=O)C4CC4)C[C@H]3C)nn12` [Example 89, N-((3R,4S)-1-(Cyclopropylsulfonyl)-3-methylpiperidin-4-yl)-5-isopropoxy-6-(1H-pyrazol-4-yl)-[1,2,4]triazolo[1,5-a]pyrazin-2-amine], the IC50 is at most 20 nM.

Consider `C[C@@H]1CN(S(C)(=O)=O)CC[C@@H]1Nc1nc2cnc(-c3cn[nH]c3)c(OC3CCOCC3)n2n1` [Example 90], for which the IC50 is at most 20 nM.

Regarding `CCS(=O)(=O)N1CC[C@H](Nc2nc3cnc(-c4cn[nH]c4)c(OC4CCOCC4)n3n2)[C@H](C)C1` [Example 91, N-((3R,4S)-1-(Ethylsulfonyl)-3-methylpiperidin-4-yl)-6-(1H-pyrazol-4-yl)-5-((tetrahydro-2H-pyran-4-yl)oxy)-[1,2,4]triazolo[1,5-a]pyrazin-2-amine], the half-maximal inhibitory concentration (IC50) was at most 20 nM.

Regarding `C[C@@H]1CN(S(=O)(=O)C2CC2)CC[C@@H]1Nc1nc2cnc(-c3cn[nH]c3)c(OC3CCOCC3)n2n1` [Example 92, N-((3R,4S)-1-(Cyclopropylsulfonyl)-3-methylpiperidin-4-yl)-6-(1H-pyrazol-4-yl)-5-((tetrahydro-2H-pyran-4-yl)oxy)-[1,2,4]triazolo[1,5-a]pyrazin-2-amine], the IC50 was at most 20 nM.

Take `CCS(=O)(=O)N1CC[C@H](Nc2nc3cnc(-c4cn[nH]c4)c(OC4CCC4)n3n2)[C@H](C)C1` [Example 93, 5-Cyclobutoxy-N-((3R,4S)-1-(ethylsulfonyl)-3-methylpiperidin-4-yl)-6-(1H-pyrazol-4-yl)-[1,2,4]triazolo[1,5-a]pyrazin-2-amine]: the IC50 is at most 20 nM.

For `C[C@@H]1CN(S(=O)(=O)c2cnn(C)c2)CC[C@@H]1Nc1nc2cnc(-c3cn[nH]c3)c(OC3CCC3)n2n1` [Example 94, 5-Cyclobutoxy-N-((3R,4S)-3-methyl-1-((1-methyl-1H-pyrazol-4-yl)sulfonyl)piperidin-4-yl)-6-(1H-pyrazol-4-yl)-[1,2,4]triazolo[1,5-a]pyrazin-2-amine], the IC50 was at most 20 nM.

Compound `C[C@@H]1CN(S(=O)(=O)c2cn(C)cn2)CC[C@@H]1Nc1nc2cnc(-c3cn[nH]c3)c(OC3CCC3)n2n1` [Example 95, 5-Cyclobutoxy-N-((3R,4S)-3-methyl-1-((1-methyl-1H-imidazol-4-yl)sulfonyl)piperidin-4-yl)-6-(1H-pyrazol-4-yl)-[1,2,4]triazolo[1,5-a]pyrazin-2-amine] yielded an IC50 of at most 20 nM.

Consider `CCS(=O)(=O)N1CC[C@H](Nc2nc3ccc(-c4cn[nH]c4)c(OC(C)C)n3n2)[C@H](C)C1` [Example 96, N-((3R,4S)-1-(Ethylsulfonyl)-3-methylpiperidin-4-yl)-5-isopropoxy-6-(1H-pyrazol-4-yl)-[1,2,4]triazolo[1,5-a]pyridin-2-amine], for which the 50% inhibitory concentration (IC50) was at most 20 nM.

Compound `CC(C)Oc1c(-c2cn[nH]c2)ccc2nc(N[C@H]3CCN(S(=O)(=O)C4CC4)C[C@H]3C)nn12` [Example 97, N-((3R,4S)-1-(Cyclopropylsulfonyl)-3-methylpiperidin-4-yl)-5-isopropoxy-6-(1H-pyrazol-4-yl)-[1,2,4]triazolo[1,5-a]pyridin-2-amine] returned a half-inhibitory concentration (IC50) of at most 20 nM.

Take `C[C@@H]1CN(S(C)(=O)=O)CC[C@@H]1Nc1nc2ccc(-c3cn[nH]c3)c(OC3CCOCC3)n2n1` [Example 98, N-((3R,4S)-3-Methyl-1-(methylsulfonyl)piperidin-4-yl)-6-(1H-pyrazol-4-yl)-5-((tetrahydro-2H-pyran-4-yl)oxy)-[1,2,4]triazolo[1,5-a]pyridin-2-amine]: the half-inhibitory concentration (IC50) was at most 20 nM.

On to `C[C@@H]1CN(S(=O)(=O)c2cnn(C)c2)CC[C@@H]1Nc1nc2ccc(-c3cn[nH]c3)c(OC3CCOCC3)n2n1` [Example 99, N-((3R,4S)-3-Methyl-1-((1-methyl-1H-pyrazol-4-yl)sulfonyl)piperidin-4-yl)-6-(1H-pyrazol-4-yl)-5-((tetrahydro-2H-pyran-4-yl)oxy)-[1,2,4]triazolo[1,5-a]pyridin-2-amine], for which the IC50 was at most 20 nM.

Compound `C[C@@H]1CN(S(C)(=O)=O)CC[C@@H]1Nc1nc2cnc(-c3cn[nH]c3)c(OC3CCC3)n2n1` [Example 100, 5-Cyclobutoxy-N-((3R,4S)-3-methyl-1-(methylsulfonyl)piperidin-4-yl)-6-(1H-pyrazol-4-yl)-[1,2,4]triazolo[1,5-a]pyrazin-2-amine] gave an IC50 of at most 20 nM.

As to `CC(C)COc1c(-c2cn[nH]c2)ncc2nc(N[C@H]3CCN(S(C)(=O)=O)C[C@H]3C)nn12` [Example 101, 5-Isobutoxy-N-((3R,4S)-3-methyl-1-(methylsulfonyl)piperidin-4-yl)-6-(1H-pyrazol-4-yl)-[1,2,4]triazolo[1,5-a]pyrazin-2-amine], the half-maximal inhibitory concentration (IC50) is at most 20 nM.

In the case of `CCCOc1c(-c2cn[nH]c2)ncc2nc(N[C@H]3CCN(S(C)(=O)=O)C[C@H]3C)nn12` [Example 102, N-((3R,4S)-3-Methyl-1-(methylsulfonyl)piperidin-4-yl)-5-propoxy-6-(1H-pyrazol-4-yl)-[1,2,4]triazolo[1,5-a]pyrazin-2-amine], the IC50 was at most 20 nM.

The compound `CCCCOc1c(-c2cn[nH]c2)ncc2nc(N[C@H]3CCN(S(C)(=O)=O)C[C@H]3C)nn12` [Example 103, 5-Butoxy-N-((3R,4S)-3-methyl-1-(methylsulfonyl)piperidin-4-yl)-6-(1H-pyrazol-4-yl)-[1,2,4]triazolo[1,5-a]pyrazin-2-amine] gave a 50% inhibitory concentration (IC50) of at most 20 nM.

`CC(C)COc1c(-c2cn[nH]c2)ncc2nc(NC3CCN(S(C)(=O)=O)CC3)nn12` [Example 104, 5-Isobutoxy-N-(1-(methylsulfonyl)piperidin-4-yl)-6-(1H-pyrazol-4-yl)-[1,2,4]triazolo[1,5-a]pyrazin-2-amine] registered an IC50 of at most 20 nM.

Turning to `CCCOc1c(-c2cn[nH]c2)ncc2nc(NC3CCN(S(C)(=O)=O)CC3)nn12` [Example 105, N-(1-(Methylsulfonyl)piperidin-4-yl)-5-propoxy-6-(1H-pyrazol-4-yl)-[1,2,4]triazolo[1,5-a]pyrazin-2-amine], the IC50 was at most 20 nM.

Compound `CCCCOc1c(-c2cn[nH]c2)ncc2nc(NC3CCN(S(C)(=O)=O)CC3)nn12` [Example 106, 5-Butoxy-N-(1-(methylsulfonyl)piperidin-4-yl)-6-(1H-pyrazol-4-yl)-[1,2,4]triazolo[1,5-a]pyrazin-2-amine] returned an IC50 of at most 20 nM.

With `CC1CC(Oc2c(-c3cn[nH]c3)ncc3nc(N[C@H]4CCN(S(C)(=O)=O)C[C@H]4C)nn23)C1` (stereo partly drawn) [Example 107, N-((3R,4S)-3-Methyl-1-(methylsulfonyl)piperidin-4-yl)-5-(3-methylcyclobutoxy)-6-(1H-pyrazol-4-yl)-[1,2,4]triazolo[1,5-a]pyrazin-2-amine], the IC50 is at most 20 nM.

`C[C@@H]1CN(S(C)(=O)=O)CC[C@@H]1Nc1nc2cnc(-c3cn[nH]c3)c(OC3CC(C(F)F)C3)n2n1` (stereo partly drawn) [Example 108, 5-(3-(Difluoromethyl)cyclobutoxy)-N-((3R,4S)-3-methyl-1-(methylsulfonyl)piperidin-4-yl)-6-(1H-pyrazol-4-yl)-[1,2,4]triazolo[1,5-a]pyrazin-2-amine] showed an IC50 of at most 20 nM.

Regarding `C[C@@H]1CN(S(C)(=O)=O)CC[C@@H]1Nc1nc2cnc(-c3cn[nH]c3)c(OC3CC3)n2n1` [Example 109, 5-Cyclopropoxy-N-((3R,4S)-3-methyl-1-(methylsulfonyl)piperidin-4-yl)-6-(1H-pyrazol-4-yl)-[1,2,4]triazolo[1,5-a]pyrazin-2-amine], the IC50 is at most 20 nM.

For the compound `C[C@@H]1CN(S(C)(=O)=O)CC[C@@H]1Nc1nc2cnc(-c3cn[nH]c3)c(OC3CCC(F)(F)CC3)n2n1` [Example 110, 5-((4,4-Difluorocyclohexyl)oxy)-N-((3R,4S)-3-methyl-1-(methylsulfonyl)piperidin-4-yl)-6-(1H-pyrazol-4-yl)-[1,2,4]triazolo[1,5-a]pyrazin-2-amine], the IC50 was at most 20 nM.

For `CC1COCCC1Oc1c(-c2cn[nH]c2)ncc2nc(N[C@H]3CCN(S(C)(=O)=O)C[C@H]3C)nn12` (stereo partly drawn) [Example 111, N-((3R,4S)-3-Methyl-1-(methylsulfonyl)piperidin-4-yl)-5-((3-methyltetrahydro-2H-pyran-4-yl)oxy)-6-(1H-pyrazol-4-yl)-[1,2,4]triazolo[1,5-a]pyrazin-2-amine], the IC50 is at most 20 nM.

In the case of `CC1CC(Oc2c(-c3cn[nH]c3)ncc3nc(N[C@H]4CCN(S(C)(=O)=O)C[C@H]4C)nn23)CCO1` (stereo partly drawn) [Example 112, N-((3R,4S)-3-Methyl-1-(methylsulfonyl)piperidin-4-yl)-5-((2-methyltetrahydro-2H-pyran-4-yl)oxy)-6-(1H-pyrazol-4-yl)-[1,2,4]triazolo[1,5-a]pyrazin-2-amine], the IC50 is at most 20 nM.

Compound `C[C@@H]1CN(S(C)(=O)=O)CC[C@@H]1Nc1nc2cnc(-c3cn[nH]c3)c(OC3CCOC(C(F)(F)F)C3)n2n1` (stereo partly drawn) [Example 113, N-((3R,4S)-3-Methyl-1-(methylsulfonyl)piperidin-4-yl)-6-(1H-pyrazol-4-yl)-5-((2-(trifluoromethyl)tetrahydro-2H-pyran-4-yl)oxy)-[1,2,4]triazolo[1,5-a]pyrazin-2-amine] registered an IC50 of at most 20 nM.

As a reminder, the IC50 is the midpoint of a concentration-inhibition curve. Low values mean higher potency, high ones lower potency.
